Measured values published in patent US12428394B2, “2,4-disubstituted pyrimidine derivative, preparation method therefor and use thereof” (CHENGDU ZENITAR BIOMEDICAL TECHNOLOGY CO., LTD., priority 2019, dated 2025).

Tests used:
JAK2 = target: T1, JAK2 (Homo sapiens, UniProt O60674); test: In vitro kinase activity experiment, JAK2; assay type: biochemical; details: inhibition rate of enzyme at 500 nM; measured by Eurofins
T1 construct: purchased Eurofins
Method: (§1) Buffer solution ([…], pH 7.0, 0.2 mm EDTA, 10 mM mncl2), kinase to be tested, substrate of kinase to be tested, 10 mM magnesium acetate and γ33P-ATP solution, and compounds with different concentrations were added to a reaction tube in turn, then MgATP was added to initiate the enzyme reaction process, and incubated at room temperature for 40 min. Then, the reaction was terminated with 5 μl of […], and 10 μl of the reaction solution was titrated onto the Filtermat A membrane, washed with 75 mM phosphate solution for three times, each time for 5 min., and then washed with methanol once. Finally, the Filtermat A membrane was dried and the scintillation count was carried out.

[1] = test system: MOLM-13 cells (FLT3-ITD-/+); test: Inhibition of cell proliferation by MTT experiment, MOLM-13; assay type: cell-based, human; details: Homo sapiens, MOLM-13; MTT, 72 h; read-out: IC50 value on cell proliferation inhibition, MOLM-13 FLT3-ITD-/+
Source text: (§2) MV4-11, MOLM-13 and SET-2 were used to determine the influence of the test compound of the present invention on the activity of cancer cells. MV4-11 and MOLM-13 were human leukemia cell lines from American Type Culture Collection (ATCC), expressing FLT3 receptor and containing FLT3-ITD mutation; and SET-2 was a primary thrombocythemia cell purchased from Chengdu Bowerston Biotechnology Co., Ltd., China, continuously expressing JAK2 receptor and containing the mutation of V617F.
(§3) MV4-11, MOLM-13 and SET-2 cells were filled in a 96-well petri dish with 100 μL IMDM as the medium, containing 10% fetal bovine serum (100 mL/bottle, purchased from Grassland Lvye Bio-Engineering Materials Co., Ltd. and cryopreserved at −20° C.), and with 10,000-15,000 cells in each well. […] In each group, 3-5 replicate wells were set and incubated in 5% CO2 at 37° C. for 72 h. At the endpoint, 20 μL MTT (5 mg/mL) was added to each well, and the cells were incubated for another 1-3 h.
(§4) After the inhibition rate of each concentration of compound on cell proliferation activity was calculated, the dose-response curve and IC50 value were fitted by Graphpad prism software according to the compound treatment concentrations and corresponding inhibition rates.

FLT3 = target: T2, FLT3 (Homo sapiens, UniProt P36888); test: In vitro kinase activity experiment, FLT3; assay type: biochemical; details: 40 min; inhibition rate of enzyme at 500 nM; measured by Eurofins; read-out: Kinase activity @ 500 nM (%) FLT3
T2 construct: purchased Eurofins
T2 sequence (P36888 27-993): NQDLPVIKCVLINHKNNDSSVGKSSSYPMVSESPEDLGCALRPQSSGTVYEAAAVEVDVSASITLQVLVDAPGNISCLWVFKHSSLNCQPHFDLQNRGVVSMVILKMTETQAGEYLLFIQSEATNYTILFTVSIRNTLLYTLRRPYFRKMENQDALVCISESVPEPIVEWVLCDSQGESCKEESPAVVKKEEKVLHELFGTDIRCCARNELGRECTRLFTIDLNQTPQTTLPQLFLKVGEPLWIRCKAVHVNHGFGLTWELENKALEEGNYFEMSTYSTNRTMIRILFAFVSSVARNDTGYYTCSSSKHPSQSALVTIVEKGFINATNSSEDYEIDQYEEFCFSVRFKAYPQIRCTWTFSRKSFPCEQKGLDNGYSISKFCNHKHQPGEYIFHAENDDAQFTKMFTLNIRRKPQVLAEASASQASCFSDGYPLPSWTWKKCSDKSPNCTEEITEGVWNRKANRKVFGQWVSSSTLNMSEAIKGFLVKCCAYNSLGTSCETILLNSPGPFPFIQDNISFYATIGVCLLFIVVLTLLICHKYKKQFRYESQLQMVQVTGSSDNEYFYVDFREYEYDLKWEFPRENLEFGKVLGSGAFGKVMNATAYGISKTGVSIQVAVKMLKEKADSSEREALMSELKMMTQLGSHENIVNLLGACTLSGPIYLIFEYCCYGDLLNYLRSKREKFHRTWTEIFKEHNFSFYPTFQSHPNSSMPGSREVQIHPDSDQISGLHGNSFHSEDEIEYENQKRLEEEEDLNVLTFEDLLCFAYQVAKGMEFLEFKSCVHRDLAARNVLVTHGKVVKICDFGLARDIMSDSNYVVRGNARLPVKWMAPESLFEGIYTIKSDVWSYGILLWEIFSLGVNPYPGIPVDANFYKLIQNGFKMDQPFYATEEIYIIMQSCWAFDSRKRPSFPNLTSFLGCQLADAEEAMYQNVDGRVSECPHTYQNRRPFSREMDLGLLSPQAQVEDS
Method: as §1

[2] = test system: MV4-11 cells (FLT3-ITD+/+); test: Inhibition of cell proliferation by MTT experiment, MV4-11; assay type: cell-based, human; details: Homo sapiens, MV4-11; MTT, 72 h; read-out: IC50 value on cell proliferation inhibition, MV4-11 FLT3-ITD+/+
Source text: as §2, §3, §4

SET-2 cells (JAK2 V617F) = test: Inhibition of cell proliferation by MTT experiment, SET-2; assay type: cell-based; details: Homo sapiens, SET-2; MTT, 72 h; read-out: IC50 value on cell proliferation inhibition, SET-2 (V617F)
Source text: as §2, §3, §4

T1 sequence (O60674 whole entry): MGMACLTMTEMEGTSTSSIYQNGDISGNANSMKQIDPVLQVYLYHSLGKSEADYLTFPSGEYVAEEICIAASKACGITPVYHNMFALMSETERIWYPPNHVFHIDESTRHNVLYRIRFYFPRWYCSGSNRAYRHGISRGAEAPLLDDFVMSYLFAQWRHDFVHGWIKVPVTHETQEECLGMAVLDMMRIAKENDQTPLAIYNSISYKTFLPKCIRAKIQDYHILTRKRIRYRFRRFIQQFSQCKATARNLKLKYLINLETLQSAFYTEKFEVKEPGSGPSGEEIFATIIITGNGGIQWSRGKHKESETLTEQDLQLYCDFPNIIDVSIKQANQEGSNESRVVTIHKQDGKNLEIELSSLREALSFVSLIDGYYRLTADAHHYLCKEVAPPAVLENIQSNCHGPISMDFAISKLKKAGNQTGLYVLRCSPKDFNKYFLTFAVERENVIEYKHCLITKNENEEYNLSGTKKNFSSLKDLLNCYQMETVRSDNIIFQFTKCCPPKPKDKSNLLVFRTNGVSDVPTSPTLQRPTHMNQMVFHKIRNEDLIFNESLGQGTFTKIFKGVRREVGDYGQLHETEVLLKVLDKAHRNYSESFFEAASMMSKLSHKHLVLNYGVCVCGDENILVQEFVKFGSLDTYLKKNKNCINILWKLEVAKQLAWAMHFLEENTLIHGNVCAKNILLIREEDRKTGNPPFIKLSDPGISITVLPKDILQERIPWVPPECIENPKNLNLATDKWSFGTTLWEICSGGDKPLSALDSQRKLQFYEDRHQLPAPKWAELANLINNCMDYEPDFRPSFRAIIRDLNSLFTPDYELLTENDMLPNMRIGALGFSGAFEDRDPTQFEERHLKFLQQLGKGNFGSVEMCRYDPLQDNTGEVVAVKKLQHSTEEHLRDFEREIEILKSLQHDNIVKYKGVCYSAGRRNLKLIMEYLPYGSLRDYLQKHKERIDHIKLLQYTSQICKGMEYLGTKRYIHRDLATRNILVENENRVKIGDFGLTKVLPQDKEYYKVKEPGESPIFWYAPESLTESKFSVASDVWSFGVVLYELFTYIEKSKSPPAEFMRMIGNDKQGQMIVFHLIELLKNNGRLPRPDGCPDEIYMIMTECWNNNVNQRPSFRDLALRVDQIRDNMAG

## CC(C)N1CCN(Cc2ccc(Nc3ncc(F)c(-c4ccc(CN5CCCC5)o4)n3)nc2)CC1 [CLJ-1, 5-fluoro-N-(5-((4-isopropylpiperazine-1-yl)methyl)pyridine-2-yl)-4-(5-(pyrrolidine-1-ylmethyl)furan-2-yl) pyrimidine-2-amine]
JAK2
  Kinase activity @ 500 nM (%) JAK2: 46%
[1]
  IC50: 100 to 1000 nM
FLT3
  inhibition at 0.5 µM: 33%
[2]
  IC50: 100 to 1000 nM
SET-2 cells (JAK2 V617F)
  IC50: > 1000 nM

## CCN1CCN(c2ccc(Nc3ncc(F)c(-c4ccc(CN5CCCC5)o4)n3)nc2)CC1 [CLJ-2]
JAK2
  Kinase activity @ 500 nM (%) JAK2: 30%
[1]
  IC50: 100 to 1000 nM
FLT3
  inhibition at 0.5 µM: 25%
[2]
  IC50: 100 to 1000 nM
SET-2 cells (JAK2 V617F)
  IC50: > 1000 nM

## CC(C)N1CCN(Cc2ccc(Nc3ncc(F)c(-c4ccc(CN5CCc6ccccc65)o4)n3)nc2)CC1 [CLJ-3, 5-fluoro-4-(5-(dihydroindole-1-ylmethyl)furan-2-yl)-N-(5-((4-isopropylpiperazine-1-yl)methyl)pyridine-2-yl) pyrimidine-2-amine]
JAK2
  Kinase activity @ 500 nM (%) JAK2: 45%
[1]
  IC50: 100 to 1000 nM
FLT3
  inhibition at 0.5 µM: 29%
[2]
  IC50: 100 to 1000 nM
SET-2 cells (JAK2 V617F)
  IC50: > 1000 nM

## CCCn1cc(-c2nc(Nc3cc(CN4CCCC(C)C4)c(F)cn3)ncc2F)cn1 (stereo not shown) [CLJ-4, 5-fluoro-N-(5-fluoro-4-((3-methylpiperidine-1-yl)methyl)pyridine-2-yl)-4-(1-propyl-1H-pyrazole-4-yl) pyrimidine-2-amine]
JAK2
  Kinase activity @ 500 nM (%) JAK2: 38%
[1]
  IC50: 100 to 1000 nM
FLT3
  inhibition at 0.5 µM: 28%
[2]
  IC50: 100 to 1000 nM
SET-2 cells (JAK2 V617F)
  IC50: > 1000 nM

## CCCn1cc(-c2nc(Nc3cc(CN4CCN(CC)CC4)c(F)cn3)ncc2F)cn1 [CLJ-5, 5-fluoro-N-(5-fluoro-4-((4-ethylpiperazine-1-yl)methyl)pyridine-2-yl)-4-(1-propyl-1H-pyrazole-4-yl) pyrimidine-2-amine]
JAK2
  Kinase activity @ 500 nM (%) JAK2: 40%
[1]
  IC50: 100 to 1000 nM
FLT3
  inhibition at 0.5 µM: 34%
[2]
  IC50: 100 to 1000 nM
SET-2 cells (JAK2 V617F)
  IC50: > 1000 nM

## CCCn1cc(-c2nc(Nc3ccc(N4CCN(C)CC4)cc3F)ncc2F)cn1 [CLJ-6, 5-fluoro-N-(2-fluoro-4-(4-methylpiperazine-1-yl)phenyl)-4-(1-propyl-1H-pyrazol-4-yl) pyrimidine-2-amine]
JAK2
  Kinase activity @ 500 nM (%) JAK2: 30%
[1]
  IC50: > 1000 nM
FLT3
  inhibition at 0.5 µM: 34%
[2]
  IC50: > 1000 nM
SET-2 cells (JAK2 V617F)
  IC50: > 1000 nM

## CCCn1cc(-c2nc(Nc3ccc(N4CCN(C)CC4)c(F)c3)ncc2F)cn1 [CLJ-7, 5-fluoro-N-(3-fluoro-4-(4-methylpiperazine-1-yl)phenyl)-4-(1-propyl-1H-pyrazol-4-yl) pyrimidine-2-amine]
JAK2
  Kinase activity @ 500 nM (%) JAK2: 38%
[1]
  IC50: 100 to 1000 nM
FLT3
  inhibition at 0.5 µM: 28%
[2]
  IC50: 100 to 1000 nM
SET-2 cells (JAK2 V617F)
  IC50: > 1000 nM

## CCCn1cc(-c2nc(Nc3ccc(N4CCN(CC)CC4)cc3F)ncc2F)cn1 [CLJ-8, 5-fluoro-N-(2-fluoro-4-(4-ethylpiperazine-1-yl)phenyl)-4-(1-propyl-1H-pyrazole-4-yl) pyrimidine-2-amine]
JAK2
  Kinase activity @ 500 nM (%) JAK2: 30%
[1]
  IC50: 100 to 1000 nM
FLT3
  inhibition at 0.5 µM: 40%
[2]
  IC50: 100 to 1000 nM
SET-2 cells (JAK2 V617F)
  IC50: > 1000 nM

## CCCn1cc(-c2nc(Nc3ccc(N4CCN(CC)CC4)c(F)c3)ncc2F)cn1 [CLJ-9, 5-fluoro-N-(3-fluoro-4-(4-ethylpiperazine-1-yl)phenyl)-4-(1-propyl-1H-pyrazole-4-yl) pyrimidine-2-amine]
JAK2
  Kinase activity @ 500 nM (%) JAK2: 27%
[1]
  IC50: 100 to 1000 nM
FLT3
  inhibition at 0.5 µM: 20%
[2]
  IC50: 10 to 100 nM
SET-2 cells (JAK2 V617F)
  IC50: > 1000 nM

## CCCCn1cc(-c2nc(Nc3ccc(N4CCN(C)CC4)c(F)c3)ncc2F)cn1 [CLJ-10, 5-fluoro-N-(3-fluoro-4-(4-methylpiperazine-1-yl)phenyl)-4-(1-butyl-1H-pyrazol-4-yl) pyrimidine-2-amine]
JAK2
  Kinase activity @ 500 nM (%) JAK2: 37%
[1]
  IC50: 100 to 1000 nM
FLT3
  inhibition at 0.5 µM: 25%
[2]
  IC50: > 1000 nM
SET-2 cells (JAK2 V617F)
  IC50: > 1000 nM

## CCCN1CCC(n2cc(-c3nc(Nc4ccc(N5CCN(C)CC5)cc4)ncc3F)cn2)CC1 [CLJ-11, 5-fluoro-N-(4-(4-methylpiperazine-1-yl)phenyl)-4-(1-(1-propylpiperidine-4-yl)-1H-pyrazole-4-yl) pyrimidine-2-amine]
JAK2
  Kinase activity @ 500 nM (%) JAK2: 78%
[1]
  IC50: 100 to 1000 nM
FLT3
  inhibition at 0.5 µM: 94%
[2]
  IC50: 10 to 100 nM
SET-2 cells (JAK2 V617F)
  IC50: > 1000 nM

## CCCN1CCC(n2cc(-c3nc(Nc4ccc(N5CCN(C)CC5)c(F)c4)ncc3F)cn2)CC1 [CLJ-12, 5-fluoro-N-(3-fluoro-4-(4-methylpiperazine-1-yl)pheny)-4-(1-(1-propylpiperidine-4-yl)-1H-pyrazole-4-yl) pyrimidine-2-amine]
JAK2
  Kinase activity @ 500 nM (%) JAK2: 27%
[1]
  IC50: > 1000 nM
FLT3
  inhibition at 0.5 µM: 20%
[2]
  IC50: > 1000 nM
SET-2 cells (JAK2 V617F)
  IC50: > 1000 nM

## CCCCN1CCC(n2cc(-c3nc(Nc4ccc(N5CCN(C)CC5)c(F)c4)ncc3F)cn2)CC1 [CLJ-13, 5-fluoro-N-(3-fluoro-4-(4-methylpiperazine-1-yl)phenyl)-4-(1-(1-butylpiperidine-4-yl)-1H-pyrazole-4-yl) pyrimidine-2-amine]
JAK2
  Kinase activity @ 500 nM (%) JAK2: 89%
[1]
  IC50: 100 to 1000 nM
FLT3
  inhibition at 0.5 µM: 95%
[2]
  IC50: 10 to 100 nM
SET-2 cells (JAK2 V617F)
  IC50: > 1000 nM

## Cc1c(-c2nc(Nc3ccc(N4CCN(C5CCN(C)CC5)CC4)c(F)c3)ncc2F)cnn1C [CLJ-15]
JAK2
  Kinase activity @ 500 nM (%) JAK2: 93%
[1]
  IC50: 100 to 1000 nM
FLT3
  inhibition at 0.5 µM: 94%
[2]
  IC50: 10 to 100 nM
SET-2 cells (JAK2 V617F)
  IC50: > 1000 nM

## CN1CCN(c2ccc(Nc3ncc(F)c(-c4cnn(C5CCCC5)c4)n3)cc2F)CC1 [CLJ-16, 5-fluoro-N-(3-fluoro-4-(4-methylpiperazine-1-yl)phenyl)-4-(1-cyclopentyl-1H-pyrazol-4-yl) pyrimidine-2-amine]
JAK2
  Kinase activity @ 500 nM (%) JAK2: 96%
[1]
  IC50: 100 to 1000 nM
FLT3
  inhibition at 0.5 µM: 95%
[2]
  IC50: 10 to 100 nM
SET-2 cells (JAK2 V617F)
  IC50: > 1000 nM

## CCN1CCN(c2ccc(Nc3ncc(F)c(-c4cnn(C5CCCC5)c4)n3)cc2F)CC1 [CLJ-17, 5-fluoro-N-(3-fluoro-4-(4-ethylpiperazine-1-yl)phenyl)-4-(1-cyclopentyl-1H-pyrazole-4-yl) pyrimidine-2-amine]
JAK2
  Kinase activity @ 500 nM (%) JAK2: 90%
[1]
  IC50: 100 to 1000 nM
FLT3
  inhibition at 0.5 µM: 94%
[2]
  IC50: 10 to 100 nM
SET-2 cells (JAK2 V617F)
  IC50: 100 to 1000 nM

## CN(C)C1CCN(c2ccc(Nc3ncc(F)c(-c4cnn(C5CCCC5)c4)n3)cc2F)CC1 [CLJ-18, 5-fluoro-N-(3-fluoro-4-(4-dimethylaminopiperidine-1-yl)phenyl)-4-(1-cyclopentyl-1H-pyrazole-4-yl) pyrimidine-2-amine]
JAK2
  Kinase activity @ 500 nM (%) JAK2: 93%
[1]
  IC50: 100 to 1000 nM
FLT3
  inhibition at 0.5 µM: 93%
[2]
  IC50: 10 to 100 nM
SET-2 cells (JAK2 V617F)
  IC50: 100 to 1000 nM
